For data set [1], the system named is Staphylococcus aureus. As to the kind of experiment: Antibacterial activity against Staphylococcus aureus ATCC 25923 assessed as reduction in bacterial growth measured after 18 to 24 hrs by CLSI protocol-based Mueller-Hinton broth dilution method. Type of data set: functional. Particulars: time 18-24 hrs.
The subject of data set [2] is Bacillus subtilis. Briefly: Antibacterial activity against Bacillus subtilis ATCC 23857 assessed as reduction in bacterial growth measured after 18 to 24 hrs by CLSI protocol-based Mueller-Hinton broth dilution method. Particulars: time 18-24 hrs. It is filed as functional.
The test system of data set [3] is Escherichia coli. Briefly: Antibacterial activity against multi-drug resistant Escherichia coli clinical isolate 850 assessed as reduction in bacterial growth measured after 18 to 24 hrs by CLSI protocol-based Mueller-Hinton broth dilution method. It is filed as functional. To be noted: time 18-24 hrs.
For data set [4], the system named is Pseudomonas aeruginosa. Briefly: Antibacterial activity against multi-drug resistant Pseudomonas aeruginosa clinical isolate 119 assessed as reduction in bacterial growth measured after 18 to 24 hrs by CLSI protocol-based Mueller-Hinton broth dilution method. Particulars: time 18-24 hrs. Type of data set: functional.
For data set [5], the system named is Klebsiella pneumoniae. Briefly: Antibacterial activity against Klebsiella pneumoniae ATCC 700603 assessed as reduction in bacterial growth measured after 18 to 24 hrs by CLSI protocol-based Mueller-Hinton broth dilution method. It is filed as functional. To be noted: time 18-24 hrs.
For data set [6], the system named is Acinetobacter baumannii. As to the kind of experiment: Antibacterial activity against multi-drug resistant Acinetobacter baumannii clinical isolate 9840 assessed as reduction in bacterial growth measured after 18 to 24 hrs by CLSI protocol-based Mueller-Hinton broth dilution method. It is filed as functional. To be noted: time 18-24 hrs.
Data set [7] can be described thus: Hemolytic activity in human RBC. It is filed as toxicity, cell-based, Erythrocyte. To be noted: red blood cells.
The subject of data set [8] is Staphylococcus aureus. Briefly: Antibacterial activity against methicillin-resistant Staphylococcus aureus ATCC 33591 assessed as reduction in bacterial growth incubated for 16 to 24 hrs by agar dilution method. Type of data set: functional. Particulars: time 16-24 hrs.
Data set [9] relates to Enterococcus faecium. Briefly: Antibacterial activity against vancomycin resistant Enterococcus faecium NCTC 12204 assessed as reduction in bacterial growth by microdilution broth method. It is filed as functional.
Data set [10] deals with Escherichia coli. As to the kind of experiment: Antibacterial activity against Escherichia coli ATCC 25922 assessed as reduction in bacterial growth incubated for 18 to 24 hrs by broth microdilution method. It is filed as functional. To be noted: time 18-24 hrs.
For data set [11], the system named is Pseudomonas aeruginosa. Briefly: Antibacterial activity against Pseudomonas aeruginosa ATCC 15442 assessed as reduction in bacterial cell growth incubated for 18 to 24 hrs by two fold serial microdilution method. To be noted: time 18-24 hrs. Type of data set: functional.
Data set [12] in a line: Hemolytic activity against Red blood cells (unknown origin) incubated for 1 hr by spectrophotometric analysis. Type of data set: toxicity, cell-based, Erythrocyte.
The test system of data set [13] is Mycolicibacterium smegmatis. As to the kind of experiment: Antimycobacterial activity against Mycobacterium smegmatis mc2 155 assessed as reduction in bacterial cell growth incubated for 24 hrs by resazurin dye based broth microdilution method. Type of data set: functional.
The test system of data set [14] is Bacillus subtilis. Briefly: Antimicrobial activity against Bacillus subtilis assessed as microbial growth inhibition incubated for 24 hrs by broth micro-dilution method. Type of data set: functional.
In data set [15] the test system is Escherichia coli. Briefly: Antibacterial acitivity against Escherichia coli DH5a assessed as bacterial growth inhibition incubated for 24 hrs by broth micro-dilution method. Type of data set: functional.
For data set [16], the system named is Zymomonas mobilis. As to the kind of experiment: Antibacterial activity against Zymomonas mobilis ATCC 10988 assessed as reduction in bacterial growth incubated for 24 hrs by broth micro-dilution method. Type of data set: functional.
Data set [17] concerns Pseudomonas aeruginosa. Briefly: Antimicrobial activity against Pseudomonas aeruginosa assessed as inhibition of microbial growth incubated for 24 hrs by microdilution method. Type of data set: functional.
Data set [18] is described as follows: Hemolytic activity against human Red blood cells assessed as cell lysis. Type of data set: toxicity, cell-based, Erythrocyte.

≈ marks a conversion by molar mass, not a printed value. Square brackets hold non-standard residues; d marks the D form. Peptide text beside a SMILES is read from it. 2Nal = N[C@@H](Cc1ccc2ccccc2c1)C(=O)O

For the compound `CC[C@H](C)[C@H](NC(=O)[C@H](CCCNC(=N)N)NC(=O)[C@@H](CCCCN)NC(=O)[C@H](CC(C)C)NC(=O)[C@H](CC(C)C)NC(=O)CNC(C)=O)C(=O)N[C@H](CCCCN)C(=O)N[C@H](C(=O)N[C@@H](CC(C)C)C(=O)N[C@@H](CC(C)C)C(=O)NC(Cc1cn(CCCC[C@H](NC(C)=O)C(=O)NCC(=O)N[C@@H](CC(C)C)C(=O)N[C@@H](CC(C)C)C(=O)N[C@@H](CCCCN)C(=O)N[C@H](CCCNC(=N)N)C(=O)N[C@H](C(=O)N[C@H](CCCCN)C(=O)N[C@H](C(=O)N[C@@H](CC(C)C)C(=O)N[C@@H](CC(C)C)C(N)=O)[C@@H](C)O)[C@@H](C)CC)nn1)C(N)=O)[C@@H](C)O` (stereo partly specified), the MIC in data set [1] amounted to 128 µM (≈ 338 µg/mL); in [2], 4 µM (≈ 10.6 µg/mL); in [3], 16 µM (≈ 42.2 µg/mL); in [4] it was 16 µM (≈ 42.2 µg/mL); in data set [5], 16 µM (≈ 42.2 µg/mL); in [6], 8 µM (≈ 21.1 µg/mL).

On to `CC[C@H](C)[C@H](NC(=O)[C@H](CCCNC(=N)N)NC(=O)[C@H](CCCCN)NC(=O)[C@@H](CC(C)C)NC(=O)[C@H](CC(C)C)NC(=O)CNC(C)=O)C(=O)N[C@@H](CCCCN)C(=O)N[C@H](C(=O)N[C@H](CC(C)C)C(=O)N[C@H](CC(C)C)C(=O)NC(Cc1cn(CCCC[C@H](NC(=O)[C@H](CC(C)C)NC(=O)[C@H](CC(C)C)NC(=O)[C@@H](NC(=O)[C@@H](CCCCN)NC(=O)[C@@H](NC(=O)[C@H](CCCNC(=N)N)NC(=O)[C@@H](CCCCN)NC(=O)[C@H](CC(C)C)NC(=O)[C@H](CC(C)C)NC(=O)CNC(C)=O)[C@@H](C)CC)[C@@H](C)O)C(N)=O)nn1)C(N)=O)[C@@H](C)O` (stereo partly specified), for which the MIC in data set [1] came out at 32 µM (≈ 84.5 µg/mL); in data set [2] it was 2 µM (≈ 5.28 µg/mL); in data set [3], 4 µM (≈ 10.6 µg/mL); in data set [4] it was 16 µM (≈ 42.2 µg/mL); in [5], 16 µM (≈ 42.2 µg/mL); in data set [6], 2 µM (≈ 5.28 µg/mL).

As for `CC[C@H](C)[C@H](NC(=O)[C@H](CCCNC(=N)N)NC(=O)[C@@H](CCCCN)NC(=O)[C@H](CC(C)C)NC(=O)[C@H](CC(C)C)NC(=O)CNC(C)=O)C(=O)N[C@H](CCCCN)C(=O)N[C@H](C(=O)N[C@@H](CC(C)C)C(=O)N[C@@H](CC(C)C)C(=O)NC(Cc1cn(CCCC[C@H](NC(=O)[C@H](CC(C)C)NC(=O)[C@H](CC(C)C)NC(=O)[C@@H](NC(=O)[C@@H](CCCCN)NC(=O)[C@@H](NC(=O)[C@@H](CCCNC(=N)N)NC(=O)[C@H](CCCCN)NC(=O)[C@H](CC(C)C)NC(=O)[C@H](CC(C)C)NC(=O)CNC(C)=O)[C@@H](C)CC)[C@@H](C)O)C(N)=O)nn1)C(N)=O)[C@@H](C)O` (stereo partly specified), the MIC in data set [1] came out at 64 µM (≈ 169 µg/mL); in data set [2], 64 µM (≈ 169 µg/mL); in [3], 16 µM (≈ 42.2 µg/mL); in [4], 32 µM (≈ 84.5 µg/mL); in data set [5], 64 µM (≈ 169 µg/mL); in data set [6], 4 µM (≈ 10.6 µg/mL).

Regarding `CC[C@H](C)[C@H](NC(=O)[C@H](CCCNC(=N)N)NC(=O)[C@H](CCCCN)NC(=O)[C@@H](CC(C)C)NC(=O)[C@H](CC(C)C)NC(=O)CNC(C)=O)C(=O)N[C@@H](CCCCN)C(=O)N[C@H](C(=O)N[C@H](CC(C)C)C(=O)N[C@H](CC(C)C)C(=O)NC(Cc1cn(CCCC[C@H](NC(C)=O)C(=O)NCC(=O)N[C@@H](CC(C)C)C(=O)N[C@@H](CC(C)C)C(=O)N[C@H](CCCCN)C(=O)N[C@@H](CCCNC(=N)N)C(=O)N[C@H](C(=O)N[C@H](CCCCN)C(=O)N[C@H](C(=O)N[C@@H](CC(C)C)C(=O)N[C@@H](CC(C)C)C(N)=O)[C@@H](C)O)[C@@H](C)CC)nn1)C(N)=O)[C@@H](C)O` (stereo partly specified), the MIC in [1] was determined as 32 µM (≈ 84.5 µg/mL); in data set [2], 2 µM (≈ 5.28 µg/mL); in data set [3], 4 µM (≈ 10.6 µg/mL); in data set [4], 16 µM (≈ 42.2 µg/mL); in data set [5], 8 µM (≈ 21.1 µg/mL); in data set [6], 2 µM (≈ 5.28 µg/mL).

In [7], `CC(C)C[C@H](NC(=O)[C@H](CC(C)C)NC(=O)[C@H](CCCCN)NC(=O)[C@H](CCCCN)NC(=O)[C@H](Cc1ccc2ccccc2c1)NC(=O)[C@H](CCCNC(=N)N)NC(=O)[C@H](CCCCN)NC(=O)[C@H](CC(C)C)NC(=O)[C@H](CCCCN)NC(=O)CN)C(N)=O` (H-GKLKR[2Nal]KKLL-NH2) yielded an HC50 of 50.1 µM. Further, the MIC in data set [8] was 41 µM (≈ 52.5 µg/mL); in data set [9] it was 13.7 µM (≈ 17.5 µg/mL); in [10], 9.5 µM (≈ 12.2 µg/mL); in [11] it was 9.5 µM (≈ 12.2 µg/mL). In addition, in [12], the HC50 at 1 h turned out to be 50.1 µM.

Regarding `CC[C@H](C)[C@H](NC(=O)[C@H](CCCNC(=N)N)NC(=O)[C@H](CCCCN)NC(=O)[C@H](CCCCN)NC(=O)[C@H](CC(C)C)NC(=O)CN)C(=O)N[C@@H](CCCCN)C(=O)N[C@@H](CCCCN)C(=O)N[C@@H](CC(C)C)C(=O)N[C@@H](CC(C)C)C(N)=O` (H-GLKKRIKKLL-NH2), the minimum inhibitory concentration (MIC) in data set [13] was 13 µM (≈ 15.5 µg/mL); in data set [14] it was 13 µM (≈ 15.5 µg/mL); in [15], above 174 µM; in [16], 12.6 µM (≈ 15.1 µg/mL); in [17], 13 µM. Besides, the HC50 in [18] was above 174 µM.
